Measured values published in patent US12358901B2, “KV3 modulators” (priority 2018, dated 2025).

Tests used:
[1] = In vitro metabolic stability study in human hepatocytes; assay type: in vitro ADME; settings: for In vitro CLint / Rate constant k: 0.5 uM, human cryopreserved hepatocytes, 37° C.; for Rate constant k: up to 180 min; for clearance in human hepatocytes (in words): compared to pyridine comparator compounds RE11 and RE13
Description: The objective of this study was to determine metabolic stability in mixed gender human cryopreserved hepatocytes. Testosterone and 7-Hydroxycoumarin were used as positive controls for Phase I and Phase II metabolism, respectively.
Incubation medium was prepared by combining William's medium E, HEPES buffer 1 M and L-glutamine 200 mM in the following proportions: 88%, 10% and 2%, respectively (440 mL, 50 mL and 10 mL, respectively). The medium obtained was bubbled with carbogen (5% CO2, 95% O2) for 30 minutes prior to use. Cryopreserved hepatocytes were thawed and suspended in incubation medium pre-warmed at 37° C. Cells were centrifuged, re-suspended in medium and counted by means of a haemocytometer (Burker's chamber). Cell viability was measured using the Trypan Blue exclusion test.
Test compounds were separately dissolved in DMF to obtain 50 mM stock solutions that were further diluted in water/acetonitrile 50/50 (v/v) to obtain the corresponding 50 uM working solutions. Testosterone and 7-Hydroxy-Coumarin were dissolved in DMF in order to obtain a 50 mM Testosterone solution and 5 mM 7-Hydroxy-Coumarin solution. These solutions were then diluted in the incubation medium in order to obtain a 1 mM Testosterone working solution and a 500 uM 7-Hydroxy-Coumarin working solution.
10 μL of each working solution, i.e. 50 uM test compound, 1 mM Testosterone and 500 uM of 7-Hydroxy-Coumarin were added to 990 μL of 0.5×10^6 cell suspensions in order to obtain the final concentrations of 0.5 uM, 10 uM and 5 uM, respectively. The concentration of the organic solvent in each incubation was constant and <1% (v/v).
Test compounds were separately incubated at 0.5 uM for 0, 5, 10, 15, 20, 30, 45, 60, 90, 120, 150 and 180 min (12 time points) with mixed gender human cryopreserved hepatocytes at 37° C. in a 24 well plate. At each time point a robotic handling processor aspirated 50 μL of incubation mixture from each well and dispensed it into a refrigerated 96 well plate, containing 100 μL of acetonitrile with the corresponding internal standard 150 ng/mL to stop the reaction. Then an aliquot of water (120 uL) was added to equilibrate the organic solvent content at 37%. Samples were centrifuged (ca. 3500 g for 10 minutes) prior to LC MS/MS analysis.
Metabolic stability was calculated from the peak area ratio of the remaining test compound with internal standard versus time.
The intrinsic clearance (CLint) was determined from the first order elimination constant k (min^−1) (obtained from GraphPad by plotting the natural logarithm of the peak area ratio of the remaining test item with internal standard versus time), using the actual volume of the incubation V (mL), the amount of hepatocytes in the incubation M (million cells) and the hepatocellularity number per g liver Hn (120 for human).
Values for CLint were expressed as mL/min/g liver.

[2] = tested on: Salmonella typhimurium (TA1535, TA1537, TA98 and TA100) and Escherichia coli WP2 uvrA (pKM101); experiment: Ames testing (bacterial mutagenicity, with and without S9-mix); settings: 5 to 5000 ug/plate, absence and presence of S9-mix

CC[C@H]1NC(=O)N(c2cnc(Oc3ccc(C)c4c3C3(CC3)CO4)cn2)C1=O [Example 9, (5R)-5-ethyl-3-[5-(7-methylspiro[2H-benzofuran-3,1′-cyclopropane]-4-yl)oxypyrazin-2-yl]imidazolidine-2,4-dione]
In vitro CLint [1]: 1.03 mL/min/g liver | Rate constant k [1]: 0.004 min⁻¹ | clearance in human hepatocytes (in words) [1]: low clearance | Ames Result (compound) [2]: Non- mutagenic

CC[C@H]1NC(=O)N(c2cnc(Oc3cccc4c3C3(CC3)CO4)cn2)C1=O [Example 10, (5R)-5-ethyl-3-(5-spiro[2H-benzofuran-3,1′-cyclopropane]-4-yloxypyrazin-2-yl)imidazolidine-2,4-dione]
In vitro CLint [1]: 0.70 mL/min/g liver | Rate constant k [1]: 0.003 min⁻¹ | clearance in human hepatocytes (in words) [1]: low clearance | Ames Result (compound) [2]: Non- mutagenic

Cc1ccc(Oc2ncc(N3C(=O)NC(C)(C)C3=O)cn2)c2c1OCC21CC1 [RE5, reference compound]
In vitro CLint [1]: 0.31 mL/min/g liver | Rate constant k [1]: 0.002 min⁻¹ | Ames Result (compound) [2]: Non- mutagenic

CC[C@H]1NC(=O)N(c2ccc(Oc3ccc(C)c4c3C3(CC3)CO4)nc2)C1=O [RE11, reference compound]
In vitro CLint [1]: 3.58 mL/min/g liver | Rate constant k [1]: 0.02 min⁻¹ | Ames Result (compound) [2]: Non- mutagenic

CC[C@H]1NC(=O)N(c2ccc(Oc3cccc4c3C3(CC3)CO4)nc2)C1=O [RE13, (5R)-5-ethyl-3-(6-spiro[2H-benzofuran-3,1′-cyclopropane]-4-yloxy-3-pyridyl)imidazolidine-2,4-dione, reference compound]
In vitro CLint [1]: 2.16 mL/min/g liver | Rate constant k [1]: 0.009 min⁻¹
